Source: the supplement of paper PMC11451515

Test system: P12-Ichikawa
Assay: cell viability relative to DMSO control; higher = less cytotoxic
Conditions: 48 h
Summary of the method: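 Viability, reported as a per-plate percentage of DMSO wells with cell-free wells as background, came from CellTiter-Glo One luminescence. Reading took place after 48 h at 37°C. Before that, NOMO1 or SEM (500 cells/well) or P12-Ichikawa (1000 cells/well) leukemia cells, adapted for at least four passages in each medium, were seeded in 1536-well plates (5 μl) and pin-dosed with library compounds in DMSO, 47 μM to 0.79 nM over 11 threefold points.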

[1] = HPLM + 10% dialyzed FBS, 0.000781 µM
[2] = HPLM + 10% dialyzed FBS, 0.00234 µM
[3] = HPLM + 10% dialyzed FBS, 0.00702 µM
[4] = HPLM + 10% dialyzed FBS, 0.0211 µM
[5] = HPLM + 10% dialyzed FBS, 0.0632 µM
[6] = HPLM + 10% dialyzed FBS, 0.19 µM
[7] = HPLM + 10% dialyzed FBS, 0.569 µM
[8] = HPLM + 10% dialyzed FBS, 1.71 µM
[9] = HPLM + 10% dialyzed FBS, 5.12 µM
[10] = HPLM + 10% dialyzed FBS, 15.4 µM
[11] = HPLM + 10% dialyzed FBS, 46.1 µM
[12] = RPMI 5 mM glucose + 10% FBS, 0.000781 µM
[13] = RPMI 5 mM glucose + 10% FBS, 0.00234 µM
[14] = RPMI 5 mM glucose + 10% FBS, 0.00702 µM
[15] = RPMI 5 mM glucose + 10% FBS, 0.0211 µM
[16] = RPMI 5 mM glucose + 10% FBS, 0.0632 µM
[17] = RPMI 5 mM glucose + 10% FBS, 0.19 µM
[18] = RPMI 5 mM glucose + 10% FBS, 0.569 µM
[19] = RPMI 5 mM glucose + 10% FBS, 1.71 µM
[20] = RPMI 5 mM glucose + 10% FBS, 5.12 µM
[21] = RPMI 5 mM glucose + 10% FBS, 15.4 µM
[22] = RPMI 5 mM glucose + 10% FBS, 46.1 µM
[23] = RPMI 5 mM glucose + 10% dialyzed FBS, 0.000781 µM
[24] = RPMI 5 mM glucose + 10% dialyzed FBS, 0.00234 µM
[25] = RPMI 5 mM glucose + 10% dialyzed FBS, 0.00702 µM
[26] = RPMI 5 mM glucose + 10% dialyzed FBS, 0.0211 µM
[27] = RPMI 5 mM glucose + 10% dialyzed FBS, 0.0632 µM
[28] = RPMI 5 mM glucose + 10% dialyzed FBS, 0.19 µM
[29] = RPMI 5 mM glucose + 10% dialyzed FBS, 0.569 µM
[30] = RPMI 5 mM glucose + 10% dialyzed FBS, 1.71 µM
[31] = RPMI 5 mM glucose + 10% dialyzed FBS, 5.12 µM
[32] = RPMI 5 mM glucose + 10% dialyzed FBS, 15.4 µM
[33] = RPMI 5 mM glucose + 10% dialyzed FBS, 46.1 µM

Compound	cell viability [1] [%]	cell viability [2] [%]	cell viability [3] [%]	cell viability [4] [%]	cell viability [5] [%]	cell viability [6] [%]	cell viability [7] [%]	cell viability [8] [%]	cell viability [9] [%]	cell viability [10] [%]	cell viability [11] [%]	cell viability [12] [%]	cell viability [13] [%]	cell viability [14] [%]	cell viability [15] [%]	cell viability [16] [%]	cell viability [17] [%]	cell viability [18] [%]	cell viability [19] [%]	cell viability [20] [%]	cell viability [21] [%]	cell viability [22] [%]	cell viability [23] [%]	cell viability [24] [%]	cell viability [25] [%]	cell viability [26] [%]	cell viability [27] [%]	cell viability [28] [%]	cell viability [29] [%]	cell viability [30] [%]	cell viability [31] [%]	cell viability [32] [%]	cell viability [33] [%]
Cc1ccc([S+](=O)([O-])NC(=O)NN2CC3CCCC3C2)cc1 (configuration not stated)	107	110	110	114	112	106	100	80.8	66.4	44.5	22.7	110	108	103	102	113	108	97.7	70.5	57.3	34.7	20.1	107	109	116	106	112	102	93.4	72.4	51.4	36.3	23.9
Cc1n[nH]c(C)c1Cc1sc2c(c1C(=O)N1C[C@H](O)CO1)c(=O)n(C)c(=O)n2CC(C)C	116	117	119	121	109	98.8	93.4	92.6	94.3	91.4	83.4	117	118	131	120	109	107	95.6	95.8	84.3	89.9	83.8	113	118	114	114	107	98.2	91.6	92	94	88.5	83.7
COc1cc([C@@H]2c3cc4c(cc3[C@@H](O)C3COC(=O)C32)OCO4)cc(OC)c1O (some centres not stated)	86.8	92.3	88.4	9.03	95.5	38.3	9.82	8.57	5.22	5.25	4.78	80.2	–	92.1	10.5	102	56.8	14.4	7.77	6.85	4.81	5.33	77.1	91.5	94.6	22.6	94.5	63.7	19	12.9	9.44	7.81	5.82
COc1c(C)c2c(c(O)c1C/C=C(\C)CCC(=O)OCCN1CCOCC1)C(=O)OC2	106	114	114	104	124	106	109	109	58.2	40.1	35.6	104	105	111	109	105	106	110	93.9	50.2	30.1	26	109	100	100	104	98.3	106	102	88.3	57.1	35.4	30.3
Clc1ccc(C(Cn2ccnc2)OCc2ccc(Sc3ccccc3)cc2)c(Cl)c1 (configuration not stated)	103	110	107	111	117	110	118	115	111	106	9.24	115	120	109	115	116	108	110	117	109	105	14.3	111	102	111	107	107	104	105	101	102	101	19.5
Cc1ccnc(N[S+](=O)([O-])c2ccc(NC(=O)Nc3ccc([S+](=O)([O-])Nc4nccc(C)n4)cc3)cc2)n1	92.4	97.5	104	108	102	47.4	56.9	7.44	8.58	9.29	7.33	87.9	85.5	94.6	106	114	58.6	60.3	7.51	7.48	8.73	5.6	86.9	97.1	95.4	101	102	46.7	59.4	7.71	7.35	8.39	5.02
O=C(N[C@H]1CN2CCC1CC2)c1ccc(Cl)cc1	99.2	107	104	110	110	116	114	114	116	109	99.2	110	106	114	103	108	111	114	110	106	101	99.9	98.2	100	104	114	118	116	113	114	102	104	92.4
COc1ccccc1N1CCN(CC(O)COc2cccc3ccccc23)CC1 (configuration not stated)	119	123	127	117	125	132	116	121	120	106	109	–	–	–	–	–	–	–	–	–	–	–	121	123	126	117	127	125	115	109	107	90.4	82.4
